Data: PubChem BioAssay (NCI)
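Step 1: Grow cells in 96-well plates. Step 2: Expose to compound for 48 hours at 5 concentrations. Step 3: Interpolate endpoints linearly; if unreached, use highest concentration. Here, GI50 denotes the concentration required for 50% inhibition of growth. TGI marks complete inhibition of growth.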

Columns and labels:
Test in all cases: growth of human tumour cells (NCI), 48 h
[1] = system: 786-0 renal
[2] = system: A498 renal
[3] = system: A549 NSCLC
[4] = system: ACHN renal
[5] = system: BT-549 breast
[6] = system: CCRF-CEM leukemia
[7] = system: COLO 205 colon
[8] = system: DU-145 prostate
[9] = system: EKVX NSCLC
[10] = system: HCC-2998 colon
[11] = system: HCT-116 colon
[12] = system: HCT-15 colon
[13] = system: HL-60(TB) leukemia
[14] = system: HOP-62 NSCLC
[15] = system: HOP-92 NSCLC
[16] = system: HS 578T breast
[17] = system: HT29 colon
[18] = system: IGROV1 ovarian
[19] = system: K-562 leukemia
[20] = system: KM12 colon
[21] = system: LOX IMVI melanoma
[22] = system: M14 melanoma
[23] = system: MALME-3M melanoma
[24] = system: MCF7 breast
[25] = system: MDA-MB-231 breast
[26] = system: MDA-MB-435
[27] = system: MOLT-4 leukemia
[28] = system: NCI-H226 lung
[29] = system: NCI-H23 lung
[30] = system: NCI-H460 lung
[31] = system: NCI-H522 lung
[32] = system: NCI/ADR-RES ovarian
[33] = system: OVCAR-3 ovarian
[34] = system: OVCAR-4 ovarian
[35] = system: OVCAR-5 ovarian
[36] = system: OVCAR-8 ovarian
[37] = system: PC-3 prostate
[38] = system: RPMI-8226 leukemia
[39] = system: RXF 393 renal
[40] = system: SF-268 CNS
[41] = system: SF-295 CNS
[42] = system: SF-539 CNS
[43] = system: SK-MEL-2 melanoma
[44] = system: SK-MEL-28 melanoma
[45] = system: SK-MEL-5 melanoma
[46] = system: SK-OV-3 ovarian
[47] = system: SN12C renal
[48] = system: SNB-19 CNS
[49] = system: SNB-75 CNS
[50] = system: SR leukemia
[51] = system: SW-620 colon
[52] = system: T-47D breast
[53] = system: TK-10 renal
[54] = system: U251 CNS
[55] = system: UACC-257 melanoma
[56] = system: UACC-62 melanoma
[57] = system: UO-31 renal

## CC1=C[C@H]2O[C@@H]3C[C@H]4OC(=O)/C=C\C=C\[C@H]([C@@H](C)O)OCC/C(C)=C/C(=O)OC[C@@]2(CC1)[C@]4(C)[C@]31CO1
[1]
  GI50: 3.93 nM
  TGI: 24.9 nM
[2]
  GI50: 5.33 nM
  TGI: 14.1 nM
[3]
  GI50: 5.26 nM
  TGI: 32.9 nM
[4]
  GI50: 8.52 nM
  TGI: 65 nM
[5]
  GI50: 3.87 nM
  TGI: 10.8 nM
[6]
  GI50: 4.25 nM
  TGI: 14300 nM
[7]
  GI50: 7.33 nM
  TGI: 18.9 nM
[8]
  GI50: 4.11 nM
  TGI: 13.9 nM
[9]
  GI50: 7.64 nM
  TGI: 52.4 nM
[10]
  GI50: 3.47 nM
  TGI: 12.1 nM
[11]
  GI50: 2.37 nM
  TGI: 8.21 nM
[12]
  GI50: 3.71 nM
  TGI: 23.6 nM
[13]
  GI50: 2.39 nM
  TGI: 6.84 nM
[14]
  GI50: 6.42 nM
  TGI: 26.3 nM
[15]
  GI50: 11.6 nM
  TGI: 84.3 nM
[16]
  GI50: 7.34 nM
  TGI: 29.8 nM
[17]
  GI50: 4.26 nM
  TGI: 18.8 nM
[18]
  GI50: 4.4 nM
  TGI: 41.7 nM
[19]
  GI50: 2.92 nM
  TGI: 14300 nM
[20]
  GI50: 6.25 nM
  TGI: 132 nM
[21]
  GI50: 2.77 nM
  TGI: 10.6 nM
[22]
  GI50: 2.78 nM
  TGI: 6.22 nM
[23]
  GI50: 3.23 nM
  TGI: 11.2 nM
[24]
  GI50: 2.76 nM
  TGI: 18.9 nM
[25]
  GI50: 17.4 nM
  TGI: 77.5 nM
[26]
  GI50: 7.94 nM
  TGI: 31.9 nM
[27]
  GI50: 2.38 nM
  TGI: 469 nM
[28]
  GI50: 3.23 nM
  TGI: 17.7 nM
[29]
  GI50: 6.14 nM
  TGI: 27 nM
[30]
  GI50: 2.46 nM
  TGI: 6.92 nM
[31]
  GI50: 2.63 nM
  TGI: 10.6 nM
[32]
  GI50: 10.8 nM
  TGI: 98.9 nM
[33]
  GI50: 4.4 nM
  TGI: 34 nM
[34]
  GI50: 7.24 nM
  TGI: 69.9 nM
[35]
  GI50: 12 nM
  TGI: 67.9 nM
[36]
  GI50: 9.15 nM
  TGI: 45.3 nM
[37]
  GI50: 6.63 nM
  TGI: 116 nM
[38]
  GI50: 3.82 nM
  TGI: 10.4 nM
[39]
  GI50: 4.37 nM
  TGI: 18.6 nM
[40]
  GI50: 10.6 nM
  TGI: 41.1 nM
[41]
  GI50: 8.91 nM
  TGI: 34.9 nM
[42]
  GI50: 3.65 nM
  TGI: 11.5 nM
[43]
  GI50: 12.4 nM
  TGI: 42.9 nM
[44]
  GI50: 5.3 nM
  TGI: 22.5 nM
[45]
  GI50: 2.58 nM
  TGI: 7.77 nM
[46]
  GI50: 6.89 nM
  TGI: 27.9 nM
[47]
  GI50: 12 nM
  TGI: 74.2 nM
[48]
  GI50: 4.14 nM
  TGI: 26.1 nM
[49]
  GI50: 8.15 nM
  TGI: 24.7 nM
[50]
  GI50: 4.05 nM
  TGI: 11.1 nM
[51]
  GI50: 8.1 nM
  TGI: 49.1 nM
[52]
  GI50: 8.31 nM
  TGI: 28.8 nM
[53]
  GI50: 9.23 nM
  TGI: 39.5 nM
[54]
  GI50: 4.43 nM
  TGI: 26.4 nM
[55]
  GI50: 11.2 nM
  TGI: 37.9 nM
[56]
  GI50: 6.99 nM
  TGI: 23.5 nM
[57]
  GI50: 5.43 nM
  TGI: 33.5 nM
